Measurements: PubChem BioAssay (NCI)
“And” between values parts separate entries of the source, which are not always exact repeats. Identical values can stand only once.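 Cells were grown in 96-well plates and exposed to each compound for 48 hours at five concentrations; endpoints were interpolated linearly between bracketing concentrations, or set to the highest concentration if not reached. The concentration for 50% growth inhibition is given as GI50. TGI denotes the concentration required for complete inhibition of growth.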

Legend:
Assay in all cases: growth of human tumour cells (NCI), 48 h
HS 578T breast = test system: HS 578T breast
M14 melanoma = test system: M14 melanoma
MDA-MB-231 breast = test system: MDA-MB-231 breast
PC-3 prostate = test system: PC-3 prostate
TK-10 renal = test system: TK-10 renal
HCT-15 colon = test system: HCT-15 colon
MOLT-4 leukemia = test system: MOLT-4 leukemia
CCRF-CEM leukemia = test system: CCRF-CEM leukemia
NCI-H460 lung = test system: NCI-H460 lung
MALME-3M melanoma = test system: MALME-3M melanoma
OVCAR-3 ovarian = test system: OVCAR-3 ovarian
KM12 colon = test system: KM12 colon
OVCAR-5 ovarian = test system: OVCAR-5 ovarian
EKVX NSCLC = test system: EKVX NSCLC
UO-31 renal = test system: UO-31 renal
OVCAR-8 ovarian = test system: OVCAR-8 ovarian
SK-OV-3 ovarian = test system: SK-OV-3 ovarian
MCF7 breast = test system: MCF7 breast
HT29 colon = test system: HT29 colon
IGROV1 ovarian = test system: IGROV1 ovarian
HOP-62 NSCLC = test system: HOP-62 NSCLC
ACHN renal = test system: ACHN renal
SK-MEL-2 melanoma = test system: SK-MEL-2 melanoma
MDA-MB-435 = test system: MDA-MB-435
SF-539 CNS = test system: SF-539 CNS
786-0 renal = test system: 786-0 renal
SK-MEL-28 melanoma = test system: SK-MEL-28 melanoma
A549 NSCLC = test system: A549 NSCLC
HL-60(TB) leukemia = test system: HL-60(TB) leukemia
SN12C renal = test system: SN12C renal
NCI-H23 lung = test system: NCI-H23 lung
UACC-62 melanoma = test system: UACC-62 melanoma
RXF 393 renal = test system: RXF 393 renal
HCT-116 colon = test system: HCT-116 colon
NCI-H226 lung = test system: NCI-H226 lung
A498 renal = test system: A498 renal
DU-145 prostate = test system: DU-145 prostate
SF-295 CNS = test system: SF-295 CNS
SR leukemia = test system: SR leukemia
BT-549 breast = test system: BT-549 breast
SW-620 colon = test system: SW-620 colon
K-562 leukemia = test system: K-562 leukemia
U251 CNS = test system: U251 CNS
T-47D breast = test system: T-47D breast
SK-MEL-5 melanoma = test system: SK-MEL-5 melanoma
NCI/ADR-RES ovarian = test system: NCI/ADR-RES ovarian
SNB-19 CNS = test system: SNB-19 CNS
HCC-2998 colon = test system: HCC-2998 colon
SF-268 CNS = test system: SF-268 CNS

With `CC1(C)C2CC(=O)C1(C)C(OCc1ccccc1)C2Br` (stereo not given) the GI50 (HS 578T breast) was 13.4 µM, the TGI (HS 578T breast) was 68.2 µM and 58.8 µM and the GI50 (M14 melanoma) was 23.4 µM and 54.8 µM. The TGI (M14 melanoma) was 57.9 µM and > 100 µM, the GI50 (MDA-MB-231 breast) was 18.5 µM and > 100 µM and the TGI (MDA-MB-231 breast) was 42.9 µM and > 100 µM. For the same compound, the TGI (PC-3 prostate) was 47.8 µM and > 100 µM, the TGI (TK-10 renal) was greater than 100 µM and the TGI (HCT-15 colon) was 31.1 µM and > 100 µM. The TGI (MOLT-4 leukemia) was 51.2 µM and 49.9 µM, the TGI (CCRF-CEM leukemia) was 49.1 µM and 56.1 µM and the GI50 (NCI-H460 lung) was 20.2 µM and 48.5 µM. The TGI (NCI-H460 lung) was 43.5 µM and > 100 µM, the GI50 (MALME-3M melanoma) was 19.1 µM and 48.6 µM and the TGI (MALME-3M melanoma) was 36.9 µM and > 100 µM. The GI50 (OVCAR-3 ovarian) was 19.3 µM and 53.4 µM, the TGI (OVCAR-3 ovarian) was 37.1 µM and > 100 µM and the GI50 (KM12 colon) was 31.4 µM and 63 µM. The TGI (KM12 colon) was greater than 100 µM, the GI50 (OVCAR-5 ovarian) was 32.2 µM and > 100 µM and the TGI (OVCAR-5 ovarian) was greater than 100 µM. For the same compound, the TGI (EKVX NSCLC) was greater than 100 µM, the GI50 (UO-31 renal) was 29.5 µM and 62 µM and the TGI (UO-31 renal) was 75.1 µM and > 100 µM. The GI50 (OVCAR-8 ovarian) was 22.7 µM and 95.7 µM, the TGI (OVCAR-8 ovarian) was 56.8 µM and > 100 µM and the GI50 (SK-OV-3 ovarian) was 41.5 µM and > 100 µM. For the same compound, the TGI (SK-OV-3 ovarian) was greater than 100 µM, the TGI (MCF7 breast) was greater than 100 µM and the TGI (HT29 colon) was 32.2 µM and 71.3 µM. For the same compound, the TGI (IGROV1 ovarian) was greater than 100 µM, the GI50 (HOP-62 NSCLC) was 16.3 µM and 54.3 µM and the TGI (HOP-62 NSCLC) was 33.9 µM and > 100 µM. For the same compound, the GI50 (ACHN renal) was 38.5 µM and 93.9 µM, the TGI (ACHN renal) was greater than 100 µM and the GI50 (SK-MEL-2 melanoma) was 13.1 µM and > 100 µM. For the same compound, the TGI (SK-MEL-2 melanoma) was 25.8 µM and > 100 µM, the TGI (MDA-MB-435) was > 100 µM and 84.7 µM and the GI50 (SF-539 CNS) was 25.9 µM and > 100 µM. For the same compound, the TGI (SF-539 CNS) was 68.4 µM and > 100 µM, the GI50 (786-0 renal) was 46.5 µM and > 100 µM and the TGI (786-0 renal) was greater than 100 µM. For the same compound, the GI50 (SK-MEL-28 melanoma) was 15.1 µM and > 100 µM, the TGI (SK-MEL-28 melanoma) was greater than 100 µM and the TGI (A549 NSCLC) was greater than 100 µM. The TGI (HL-60(TB) leukemia) was 50.2 µM and 62.1 µM, the GI50 (SN12C renal) was 24.2 µM and 82.1 µM and the TGI (SN12C renal) was 52.9 µM and > 100 µM. For the same compound, the TGI (NCI-H23 lung) was 76.3 µM and > 100 µM, the TGI (UACC-62 melanoma) was greater than 100 µM and the GI50 (RXF 393 renal) was 20.6 µM and 82.7 µM. For the same compound, the TGI (RXF 393 renal) was 46.8 µM and > 100 µM, the TGI (HCT-116 colon) was 39.8 µM and > 100 µM and the GI50 (NCI-H226 lung) was 23.2 µM and > 100 µM. The TGI (NCI-H226 lung) was 56.1 µM and > 100 µM, the GI50 (A498 renal) was 24.8 µM and > 100 µM and the TGI (A498 renal) was 62.2 µM and > 100 µM. For the same compound, the GI50 (DU-145 prostate) was 29.7 µM and 86.8 µM, the TGI (DU-145 prostate) was greater than 100 µM and the TGI (SF-295 CNS) was 70.9 µM and > 100 µM. The TGI (SR leukemia) was 52.8 µM and 66.1 µM, the GI50 (BT-549 breast) was 26.6 µM and 54.3 µM and the TGI (BT-549 breast) was 67.4 µM and > 100 µM. For the same compound, the TGI (SW-620 colon) was 47 µM and > 100 µM, the TGI (K-562 leukemia) was greater than 100 µM and the GI50 (U251 CNS) was 22.4 µM and 51.7 µM. The TGI (U251 CNS) was 44.6 µM and > 100 µM, the TGI (T-47D breast) was 77.9 µM and > 100 µM and the TGI (SK-MEL-5 melanoma) was 29.3 µM and > 100 µM. The TGI (NCI/ADR-RES ovarian) was 42.1 µM and > 100 µM, the GI50 (SNB-19 CNS) was 47.2 µM and > 100 µM and the TGI (SNB-19 CNS) was greater than 100 µM. For the same compound, the GI50 (HCC-2998 colon) was 27.7 µM and 98.6 µM, the TGI (HCC-2998 colon) was 69.3 µM and > 100 µM and the TGI (SF-268 CNS) was greater than 100 µM.
